Active and inactive are the calls of the source. No rule for the calls is given here.
System: CCRIS mutagenicity, Ames/micronucleus/aberration tests
Assay: CCRIS mutagenicity studies
[1] = Test System: AMES SALMONELLA TYPHIMURIUM, Strain/Indicator: TA98, Metabolic Activation: NONE, Method: STANDARD PLATE
[2] = Test System: AMES SALMONELLA TYPHIMURIUM, Strain/Indicator: TA100, Metabolic Activation: NONE, Method: STANDARD PLATE
[3] = Test System: AMES SALMONELLA TYPHIMURIUM, Strain/Indicator: TA1535, Metabolic Activation: NONE, Method: STANDARD PLATE
[4] = Test System: AMES SALMONELLA TYPHIMURIUM, Strain/Indicator: TA1537, Metabolic Activation: NONE, Method: STANDARD PLATE
[5] = Test System: AMES SALMONELLA TYPHIMURIUM, Strain/Indicator: TA98, Metabolic Activation: RAT, LIVER, S-9, AROCLOR 1254, Method: STANDARD PLATE
[6] = Test System: AMES SALMONELLA TYPHIMURIUM, Strain/Indicator: TA100, Metabolic Activation: RAT, LIVER, S-9, AROCLOR 1254, Method: STANDARD PLATE
[7] = Test System: AMES SALMONELLA TYPHIMURIUM, Strain/Indicator: TA1535, Metabolic Activation: RAT, LIVER, S-9, AROCLOR 1254, Method: STANDARD PLATE

C[n+]1c2n(c(=O)c3ccccc31)CCc1c-2[nH]c2ccccc12
mutagenic call [1]: inactive; negative | mutagenic call (Test System: AMES SALMONELLA TYPHIMURIUM, Strain/Indicator: TA98, Metabolic Activation: RAT LIVER S-9, AROCLOR 1254 (10%), Method: STANDARD PLATE): inactive; negative | mutagenic call [2]: inactive; negative | mutagenic call (Test System: AMES SALMONELLA TYPHIMURIUM, Strain/Indicator: TA100, Metabolic Activation: RAT LIVER S-9, AROCLOR 1254 (10%), Method: STANDARD PLATE): inactive; negative | mutagenic call [3]: inactive; negative | mutagenic call (Test System: AMES SALMONELLA TYPHIMURIUM, Strain/Indicator: TA1535, Metabolic Activation: RAT LIVER S-9, AROCLOR 1254 (10%), Method: STANDARD PLATE): inactive; negative | mutagenic call [4]: inactive; negative | mutagenic call (Test System: AMES SALMONELLA TYPHIMURIUM, Strain/Indicator: TA1537, Metabolic Activation: RAT LIVER S-9, AROCLOR 1254 (10%), Method: STANDARD PLATE): inactive; negative

CCOC(=O)C(Cl)C(C)=O (stereo unspecified)
mutagenic call (Test System: AMES SALMONELLA TYPHIMURIUM, Strain/Indicator: TA98, Metabolic Activation: HAMSTER, LIVER, S-9, AROCLOR 1254, Method: STANDARD PLATE): inactive; negative | mutagenic call [1]: inactive; negative | mutagenic call [5]: inactive; negative | mutagenic call (Test System: AMES SALMONELLA TYPHIMURIUM, Strain/Indicator: TA100, Metabolic Activation: HAMSTER, LIVER, S-9, AROCLOR 1254, Method: STANDARD PLATE): inactive; negative | mutagenic call [2]: inactive; negative | mutagenic call [6]: inactive; negative | mutagenic call (Test System: AMES SALMONELLA TYPHIMURIUM, Strain/Indicator: TA1535, Metabolic Activation: HAMSTER, LIVER, S-9, AROCLOR 1254, Method: STANDARD PLATE): inactive; negative | mutagenic call [3]: inactive; negative | mutagenic call [7]: inactive; negative | mutagenic call (Test System: AMES SALMONELLA TYPHIMURIUM, Strain/Indicator: TA1537, Metabolic Activation: HAMSTER, LIVER, S-9, AROCLOR 1254, Method: STANDARD PLATE): inactive; negative | mutagenic call [4]: inactive; negative | mutagenic call (Test System: AMES SALMONELLA TYPHIMURIUM, Strain/Indicator: TA1537, Metabolic Activation: RAT, LIVER, S-9, AROCLOR 1254, Method: STANDARD PLATE): inactive; negative | mutagenic call (Test System: AMES SALMONELLA TYPHIMURIUM, Strain/Indicator: TA1538, Metabolic Activation: HAMSTER, LIVER, S-9, AROCLOR 1254, Method: STANDARD PLATE): inactive; negative | mutagenic call (Test System: AMES SALMONELLA TYPHIMURIUM, Strain/Indicator: TA1538, Metabolic Activation: NONE, Method: STANDARD PLATE): inactive; negative | mutagenic call (Test System: AMES SALMONELLA TYPHIMURIUM, Strain/Indicator: TA1538, Metabolic Activation: RAT, LIVER, S-9, AROCLOR 1254, Method: STANDARD PLATE): inactive; negative | mutagenic call (Test System: MOUSE LYMPHOMA, Strain/Indicator: L5178Y (TK+/TK-), Metabolic Activation: NONE, Method: SUSPENSION/PLATE): inactive; positive. reevaluation of results: negative | mutagenic call (Test System: MOUSE LYMPHOMA, Strain/Indicator: L5178Y (TK+/TK-), Metabolic Activation: RAT, LIVER, S-9, AROCLOR 1254, Method: SUSPENSION/PLATE): active; positive. reevaluation of results: inconclusive

O[C@H]1C=Cc2c(ccc3c4c5c(cccc5cc23)C=C4)[C@@H]1O
mutagenic call [1]: inactive; negative | mutagenic call (Test System: AMES SALMONELLA TYPHIMURIUM, Strain/Indicator: TA98, Metabolic Activation: RAT, LIVER, S-9, AROCLOR 1254 (0.4, 0.8, 1.15 OR 1.5 MG/PLATE), Method: STANDARD PLATE): active; positive | mutagenic call [5]: active; positive

C=CC(=C)CCC=C(C)C
mutagenic call (End Point: E. coli, Strain/Indicator: WP2uvrA/pKM101, Metabolic Activation: None, Method: Preincubation): inactive; negative | mutagenic call (End Point: E. coli, Strain/Indicator: WP2uvrA/pKM101, Metabolic Activation: Rat, Liver, S-9, Aroclor 1254 (10%), Method: Preincubation): inactive; negative | mutagenic call (End Point: In vivo micronucleus, Test System: Micronucleated normochromatic erythrocytes, Species: Mouse, Strain/Sex: B6C3F1 / Female, Route: Oral): inactive; negative | mutagenic call (End Point: In vivo micronucleus, Test System: Micronucleated normochromatic erythrocytes, Species: Mouse, Strain/Sex: B6C3F1 / Male, Route: Oral): inactive; negative | mutagenic call (Test System: AMES SALMONELLA TYPHIMURIUM, Strain/Indicator: TA97A, Metabolic Activation: NONE, Method: STANDARD PLATE): inactive; negative | mutagenic call (Test System: AMES SALMONELLA TYPHIMURIUM, Strain/Indicator: TA97A, Metabolic Activation: RAT, LIVER, S-9, AROCLOR 1254, Method: STANDARD PLATE): inactive; negative | mutagenic call [1]: inactive; negative | mutagenic call [5]: inactive; negative | mutagenic call [2]: inactive; negative | mutagenic call [6]: inactive; negative | mutagenic call [3]: inactive; negative | mutagenic call [7]: inactive; negative | mutagenic call (Test System: Ames Salmonella typhimurium, Strain/Indicator: TA97, Metabolic Activation: Hamster, Liver, S-9, Aroclor 1254 (10%), Method: Preincubation): inactive; negative | mutagenic call (Test System: Ames Salmonella typhimurium, Strain/Indicator: TA97, Metabolic Activation: Hamster, Liver, S-9, Aroclor 1254 (30%), Method: Preincubation): inactive; negative | mutagenic call (Test System: Ames Salmonella typhimurium, Strain/Indicator: TA97, Metabolic Activation: None, Method: Preincubation): inactive; negative | mutagenic call (Test System: Ames Salmonella typhimurium, Strain/Indicator: TA97, Metabolic Activation: Rat, Liver, S-9, Aroclor 1254 (10%), Method: Preincubation): inactive; negative | mutagenic call (Test System: Ames Salmonella typhimurium, Strain/Indicator: TA97, Metabolic Activation: Rat, Liver, S-9, Aroclor 1254 (30%), Method: Preincubation): inactive; negative | mutagenic call (Test System: Ames Salmonella typhimurium, Strain/Indicator: TA98, Metabolic Activation: Hamster, Liver, S-9, Aroclor 1254 (10%), Method: Preincubation): inactive; negative | mutagenic call (Test System: Ames Salmonella typhimurium, Strain/Indicator: TA98, Metabolic Activation: Hamster, Liver, S-9, Aroclor 1254 (30%), Method: Preincubation): inactive; negative | mutagenic call (Test System: Ames Salmonella typhimurium, Strain/Indicator: TA98, Metabolic Activation: None, Method: Preincubation): inactive; negative | mutagenic call (Test System: Ames Salmonella typhimurium, Strain/Indicator: TA98, Metabolic Activation: Rat, Liver, S-9, Aroclor 1254 (10%), Method: Preincubation): inactive; negative | mutagenic call (Test System: Ames Salmonella typhimurium, Strain/Indicator: TA98, Metabolic Activation: Rat, Liver, S-9, Aroclor 1254 (30%), Method: Preincubation): inactive; negative | mutagenic call (Test System: Ames Salmonella typhimurium, Strain/Indicator: TA100, Metabolic Activation: Hamster, Liver, S-9, Aroclor 1254 (10%), Method: Preincubation): inactive; negative | mutagenic call (Test System: Ames Salmonella typhimurium, Strain/Indicator: TA100, Metabolic Activation: Hamster, Liver, S-9, Aroclor 1254 (30%), Method: Preincubation): inactive; negative | mutagenic call (Test System: Ames Salmonella typhimurium, Strain/Indicator: TA100, Metabolic Activation: None, Method: Preincubation): inactive; negative | mutagenic call (Test System: Ames Salmonella typhimurium, Strain/Indicator: TA100, Metabolic Activation: Rat, Liver, S-9, Aroclor 1254 (10%), Method: Preincubation): inactive; negative | mutagenic call (Test System: Ames Salmonella typhimurium, Strain/Indicator: TA100, Metabolic Activation: Rat, Liver, S-9, Aroclor 1254 (30%), Method: Preincubation): inactive; negative | mutagenic call (Test System: Ames Salmonella typhimurium, Strain/Indicator: TA1535, Metabolic Activation: Hamster, Liver, S-9, Aroclor 1254 (10%), Method: Preincubation): inactive; negative | mutagenic call (Test System: Ames Salmonella typhimurium, Strain/Indicator: TA1535, Metabolic Activation: Hamster, Liver, S-9, Aroclor 1254 (30%), Method: Preincubation): inactive; negative | mutagenic call (Test System: Ames Salmonella typhimurium, Strain/Indicator: TA1535, Metabolic Activation: None, Method: Preincubation): inactive; negative | mutagenic call (Test System: Ames Salmonella typhimurium, Strain/Indicator: TA1535, Metabolic Activation: Rat, Liver, S-9, Aroclor 1254 (10%), Method: Preincubation): inactive; negative | mutagenic call (Test System: Ames Salmonella typhimurium, Strain/Indicator: TA1535, Metabolic Activation: Rat, Liver, S-9, Aroclor 1254 (30%), Method: Preincubation): inactive; negative | mutagenic call (Test System: CHINESE HAMSTER V-79, Strain/Indicator: V-79/6-THIOGUANINE (HGPRT), Metabolic Activation: NONE, Method: PREINCUBATION): inactive; negative | mutagenic call (Test System: CHINESE HAMSTER V-79, Strain/Indicator: V-79/6-THIOGUANINE (HGPRT), Metabolic Activation: RAT, LIVER, S-9, Method: PREINCUBATION): inactive; negative | mutagenic call (Test System: E. coli, Strain/Indicator: WP2 IC185 trpE65, Metabolic Activation: None, Method: Plate incorporation (Test material solvent: ethanol)): inactive; negative | mutagenic call (Test System: E. coli, Strain/Indicator: WP2 IC202 trpE65 oxyR/pKM101, Metabolic Activation: None, Method: Plate incorporation (Test material solvent: ethanol)): inactive; negative

Cn1sc(Cl)cc1=O (tested in a mixture with another compound)
mutagenic call [2]: active; positive | mutagenic call [6]: active; positive
